According to patent US7820656B2, “Pharmaceutical composition comprising N-aryl N′ morpholino/piperidino thiocarbamide derivatives for treating type II diabetes” (priority 2004, dated 2010):

Legend:
HepG2 hepatocyte = assay: Measurement of glycogenesis ability (glycogen content, absorbance at 490 nm); assay type: cell-based; conditions: for Glycogenesis (absorbance): absorbance at 490 nm, control 0.103; for Rate of Increase(%) of glycogenesis: versus control
Method: Thereto, ethanol was added to precipitate glycogen, followed by dissolving the precipitated glycogen in conc. sulfuric acid. Glucose produced was reacted with phenol to obtain a stained product. An absorbance of the stained product was measured at 490 nm (J Applied Physiol, 1970, 28, 234-236).

HepG2 cells = assay: Measurement of lipid peroxide (TBARS); assay type: cell-based; conditions: for Average content of TBARS (%): control 100.0; for decrease of TBARS content compared with control group: HepG2, 24 hours (FIG. 4)
Method: HepG2 cells were cultured to administer N(4′-chlorophenyl) N′ morpholino thiocarbamide (10 μg/ml-100 μg/ml). After 24 hours, a cellular culture solution was removed to wash HepG2 cells with a phosphate buffer solution (PBS), prior to adding 0.1% Triton X-100 to detach the cells. The separated cell extracts were mixed with 20% acetic acid, pH 3.5 and 0.78% aqueous thiobarbituric acid solution. The mixture was heated at 95° C. for 1 hour and centrifuged at 3000 rpm for 15 minutes. The absorbance of the red supernatant was measured at 532 nm (Anal Biochem, 1979, 95, 351-358).

RAW 264.7 cells = assay: Measurement of anti-inflammatory action (nitrites, Griess reaction, LPS-stimulated); assay type: cell-based; conditions: for Produced nitrites: 15 hours, control 3.3435, LPS 6.2775
Method: Nitrites accumulated in a cellular medium were measured as a marker of […] (NO) formation through a Griess reaction. RAW 264.7 cells were cultured in a medium containing DMEM, 10% FBS, penicillin (100 units/ml) and streptomycin sulfate (100 μg/ml) in a presence of 5% CO2, treated with N-aryl N′ morpholino/piperidino thiocarbamide derivatives in a content of 10 μg/ml and 100 μg/ml in a presence of LPS (1 μg/ml), followed by adding a Griess reagent 100 μl to the medium 100 μl 15 hours later to be cultured at room temperature for 10 minutes and measuring an absorbance at 540 nm. Nitrite content in a medium was evaluated by a standard curve using NaNO2.

mouse = assay: Oral glucose tolerance test; assay type: in vivo; conditions: 80 mg/kg oral 1 h before glucose 2 g/kg oral; blood glucose at 30, 60, 120 min; compared with control (FIG. 1)
Method: A mouse was starved for 18 hours, prior to orally administering N(4′-chlorophenyl) N′ morpholino thiocarbamide to the mouse in a dose of 80 mg/kg. After an hour passed, Glucose of 2 g/kg was orally administered to measure blood glucose level in 30, 60, and 120 minutes using a blood glucose testing kit.

[1] = system: streptozotocin-induced diabetic mouse; assay: Blood glucose lowering effect using a streptozotocin-induced diabetic mouse; assay type: in vivo; conditions: 80 mg/kg oral a day, 5 days a week, 3 consecutive weeks; STZ control almost 550 mg/dl (FIG. 2)
Method: A mouse was used two weeks after streptozotocin (50 mM citrate buffer, pH 4.5) was intraperitoneally administered to the mouse (J Gene Med. 2003, 5, 417-424). […] Change of blood glucose level was measured once a week.

insulin receptor = target: T1, insulin receptor (Mus musculus, UniProt P15208); assay: Phosphorylation measurement of insulin receptor tyrosin residues (hepatic lysate, immunoprecipitation, western blot); assay type: in vivo; conditions: 80 mg/kg to mouse starved 16 hours, liver after 1 hour; compared with control (FIG. 5)
T1 construct: the mouse was dissected to separate a liver at 4° C; from tissue; host or cells: mouse liver (hepatic lysate)
T1 sequence (P15208 28-748 limits assumed): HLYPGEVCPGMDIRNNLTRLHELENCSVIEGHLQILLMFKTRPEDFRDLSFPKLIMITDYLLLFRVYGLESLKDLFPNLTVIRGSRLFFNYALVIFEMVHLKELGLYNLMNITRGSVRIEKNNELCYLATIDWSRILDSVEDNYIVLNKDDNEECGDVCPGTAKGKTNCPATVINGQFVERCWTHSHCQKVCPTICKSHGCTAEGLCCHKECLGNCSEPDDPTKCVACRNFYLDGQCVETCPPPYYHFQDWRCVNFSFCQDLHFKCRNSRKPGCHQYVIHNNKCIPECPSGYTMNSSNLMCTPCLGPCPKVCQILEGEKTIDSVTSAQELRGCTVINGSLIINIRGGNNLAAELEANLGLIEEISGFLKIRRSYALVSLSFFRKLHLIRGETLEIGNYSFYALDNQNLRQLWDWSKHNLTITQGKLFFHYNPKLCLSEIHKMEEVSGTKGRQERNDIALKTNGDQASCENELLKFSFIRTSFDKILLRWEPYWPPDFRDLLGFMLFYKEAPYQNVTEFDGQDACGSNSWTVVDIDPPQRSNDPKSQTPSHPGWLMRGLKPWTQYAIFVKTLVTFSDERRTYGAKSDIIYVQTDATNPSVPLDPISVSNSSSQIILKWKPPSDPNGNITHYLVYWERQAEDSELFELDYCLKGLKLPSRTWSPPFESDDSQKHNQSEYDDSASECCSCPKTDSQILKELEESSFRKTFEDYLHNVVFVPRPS
Method: N(4′-chlorophenyl) N′ morpholino thiocarbamide in a dose of 80 mg/kg was administered to a male IC mouse starved for 16 hours. After an hour passed, the mouse was dissected to separate a liver at 4° C. Hepatic homogenization was provided by a little modification of conventional method (Zhao, H., Xu, H., Moore, E., Meiri, N., Quon, M. J., Alkon, D., L., Insulin receptors and spatial memory. J. Biol. Chem. 274, 34893-34902, 1999). The separated liver was suspended in a buffer A containing 50 mM Tris HCl, pH 7.4, 1 mM EDTA, 1 mM EGTA, 150 mM NaCl, 1% Triton X-100, 0.5 mM PMSF, 1 mM Na3VO4, leupeptin and aprotinin 1 μg/ml, and homogenized using a Potter-Elvehjem homogenizer. The lysate was centrifuged at 10,000×g for 20 minutes. The supernatant was analyzed on proteins and preserved at −70° C.
An immunoprecipitation was carried out by a known technique (Kim S. J., Kahn, C. R. Insulin stimulates phosphorylation of c-Jun, c-Fos and Fos-related proteins in cultured adipocytes. J. Biol. Chem. 269, 11887-11892, 1994). An equal amount of proteins from hepatic lysate were cultured with an insulin receptor antibody at 4° C. for 1 hour, followed by thereto adding protein A-cephalos to precipitate the immune complex by a centrifuge. […]

[2] = Measurement of body weight; assay type: in vivo; conditions: 80 mg/kg oral once a day for 3 consecutive weeks; administered group vs control (FIG. 6)
Method: Change of body weight was measured every week before and after N(4′-chlorophenyl) N′ morpholino thiocarbamide (80 mg/kg, PO) was administered.

[3] = Measurement of lethal dose 50%; assay type: in vivo, mouse; conditions: mouse, in vivo; oral, mice
Method: (§1) The number of dead animal was counted after N(4′-chlorophenyl) N′ morpholino thiocarbamide was orally administered to 10 mice per a dose in a dose of 50 mg/kg, 500 mg/kg, and 5000 mg/kg.

mice = assay: Measurement of lethal dose 50%; assay type: in vivo, mouse; conditions: oral, 50 mg/kg, 500 mg/kg and 5000 mg/kg, 10 mice per dose
Method: as §1

[4] = Dosage 10 ug/ml with LPS 1 μg/ml
[5] = Dosage 100 ug/ml with LPS 1 μg/ml

Cc1ccccc1NC(=S)NN1CCOCC1 [2-methylphenyl]
Glycogenesis (absorbance) (HepG2 hepatocyte; Dosage 10 μg/ml): 0216
Rate of Increase(%) of glycogenesis (HepG2 hepatocyte; Dosage 10 μg/ml): 110%
Glycogenesis (absorbance) (HepG2 hepatocyte; Dosage 100 μg/ml): 0.238
Rate of Increase(%) of glycogenesis (HepG2 hepatocyte; Dosage 100 μg/ml): 131%
Average content of TBARS (%) (HepG2 cells; Dosage 10 μg/ml): 57.9%
Average content of TBARS (%) (HepG2 cells; Dosage 100 μg/ml): 60.5%
% (produced nitrites; control 0, LPS 100) (RAW 264.7 cells; [4]): 81.17%
Produced nitrites (RAW 264.7 cells; [4]): 5.3155 µM
% (produced nitrites; control 0, LPS 100) (RAW 264.7 cells; [5]): 66.14%
Produced nitrites (RAW 264.7 cells; [5]): 5.284 µM

COc1cccc(NC(=S)NN2CCOCC2)c1 [3-methoxyphenyl]
Glycogenesis (absorbance) (HepG2 hepatocyte; Dosage 10 μg/ml): 0.191
Rate of Increase(%) of glycogenesis (HepG2 hepatocyte; Dosage 10 μg/ml): 85%
Glycogenesis (absorbance) (HepG2 hepatocyte; Dosage 100 μg/ml): 0.202
Rate of Increase(%) of glycogenesis (HepG2 hepatocyte; Dosage 100 μg/ml): 96%
Average content of TBARS (%) (HepG2 cells; Dosage 10 μg/ml): 81.9%
Average content of TBARS (%) (HepG2 cells; Dosage 100 μg/ml): 63.9%
% (produced nitrites; control 0, LPS 100) (RAW 264.7 cells; [4]): 81.19%
Produced nitrites (RAW 264.7 cells; [4]): 5.7255 µM
% (produced nitrites; control 0, LPS 100) (RAW 264.7 cells; [5]): 56.99%
Produced nitrites (RAW 264.7 cells; [5]): 5.0155 µM

Cc1cccc(NC(=S)NN2CCOCC2)c1 [3-methylphenyl]
Glycogenesis (absorbance) (HepG2 hepatocyte; Dosage 10 μg/ml): 0.189
Rate of Increase(%) of glycogenesis (HepG2 hepatocyte; Dosage 10 μg/ml): 83%
Glycogenesis (absorbance) (HepG2 hepatocyte; Dosage 100 μg/ml): 0.325
Rate of Increase(%) of glycogenesis (HepG2 hepatocyte; Dosage 100 μg/ml): 216%
Average content of TBARS (%) (HepG2 cells; Dosage 10 μg/ml): 67.5%
Average content of TBARS (%) (HepG2 cells; Dosage 100 μg/ml): 66.3%
% (produced nitrites; control 0, LPS 100) (RAW 264.7 cells; [4]): 81.19%
Produced nitrites (RAW 264.7 cells; [4]): 5.7255 µM
% (produced nitrites; control 0, LPS 100) (RAW 264.7 cells; [5]): 61.83%
Produced nitrites (RAW 264.7 cells; [5]): 5.1575 µM

S=C(Nc1ccc(Cl)cc1)NN1CCOCC1 [N(4′-chlorophenyl) N′ morpholino thiocarbamide]
blood glucose lowering effect in oral glucose tolerance test (mouse): remarkable blood glucose lowering effect
blood glucose level [1]: 300 to 400 mg/dL
increase of glycogenesis compared with control group (HepG2 hepatocyte; 10 μg/ml, 24 hours, HepG2 (FIG. 3)): 49.89%
decrease of TBARS content compared with control group (HepG2 cells; 10 μg/ml): 10.2%
decrease of TBARS content compared with control group (HepG2 cells; 100 μg/ml): 32%
tyrosin phosphorylation of insulin receptors (insulin receptor): noticeable tyrosin phosphorylation of insulin receptors
change of body weight [2]: no difference in body weight
LD50 [3]: > 5000 mg/kg
number of dead animals (mice): no mouse was dead
% (produced nitrites; control 0, LPS 100) (RAW 264.7 cells; [4]): 4.81%
Produced nitrites (RAW 264.7 cells; [4]): 3.4845 µM
% (produced nitrites; control 0, LPS 100) (RAW 264.7 cells; [5]): −9.85%
Produced nitrites (RAW 264.7 cells; [5]): 3.0545 µM

S=C(Nc1ccccc1)NN1CCOCC1 [phenyl (C11H15N3OS)]
Glycogenesis (absorbance) (HepG2 hepatocyte; Dosage 10 μg/ml): 0.301
Rate of Increase(%) of glycogenesis (HepG2 hepatocyte; Dosage 10 μg/ml): 195%
Glycogenesis (absorbance) (HepG2 hepatocyte; Dosage 100 μg/ml): 0.225
Rate of Increase(%) of glycogenesis (HepG2 hepatocyte; Dosage 100 μg/ml): 118%
% (produced nitrites; control 0, LPS 100) (RAW 264.7 cells; [4]): 62.37%
Produced nitrites (RAW 264.7 cells; [4]): 5.1735 µM
% (produced nitrites; control 0, LPS 100) (RAW 264.7 cells; [5]): 48.93%
Produced nitrites (RAW 264.7 cells; [5]): 4.779 µM

S=C(Nc1ccccc1)NN1CCCCC1 [phenyl (C12H17N3S)]
Glycogenesis (absorbance) (HepG2 hepatocyte; Dosage 10 μg/ml): 0.196
Rate of Increase(%) of glycogenesis (HepG2 hepatocyte; Dosage 10 μg/ml): 90%
Glycogenesis (absorbance) (HepG2 hepatocyte; Dosage 100 μg/ml): 0.161
Rate of Increase(%) of glycogenesis (HepG2 hepatocyte; Dosage 100 μg/ml): 56%
Average content of TBARS (%) (HepG2 cells; Dosage 10 μg/ml): 61.4%
Average content of TBARS (%) (HepG2 cells; Dosage 100 μg/ml): 65.1%
% (produced nitrites; control 0, LPS 100) (RAW 264.7 cells; [4]): 75.26%
Produced nitrites (RAW 264.7 cells; [4]): 5.5515 µM
% (produced nitrites; control 0, LPS 100) (RAW 264.7 cells; [5]): 74.20%
Produced nitrites (RAW 264.7 cells; [5]): 5.5205 µM
